Results taken from the OPERA property sets (Mansouri et al. 2018).

Conditions: for log10 BCF / log10 biotransformation half-life (days): fish

SMILES	boiling point [°C]	melting point [°C]	further results
CNC(C)CCC=C(C)C (configuration not stated)	177	–	–
CC(=O)[C@@]1(O)CC[C@H]2[C@@H]3CC[C@H]4C[C@@H](O)CC[C@]4(C)[C@H]3CC[C@@]21C	–	265	–
CC	-88.6	-183	log10 Koa: 0.42; log10 vapour pressure (mmHg): 4.5
COc1ccccc1Oc1ccccc1	288	79	–
OC(Cc1ccccc1)(c1ccccc1)c1ccccc1	–	89.5	–
CC(C)CC(C)C(C)(C)C (configuration not stated)	148	–	–
Brc1ccccc1Oc1ccccc1	–	–	log10 Koa: 7.24
CCC(=O)c1ccc(Br)cc1	–	48	–
CCC(CC)Nc1c([N+](=O)[O-])cc(C)c(C)c1[N+](=O)[O-]	330	56	log10 Koc (L/kg): 3.7; log10 vapour pressure (mmHg): -4.52
O=CNC(N1CCN(C(NC=O)C(Cl)(Cl)Cl)CC1)C(Cl)(Cl)Cl (configuration not stated)	–	–	log10 Koc (L/kg): 2.3; log10 vapour pressure (mmHg): -6.7
FC(C(F)(F)F)C(F)(F)F	-17.3	-127	log10 vapour pressure (mmHg): 3.53
Clc1cc(Cl)c(Cl)c(Oc2ccccc2)c1	–	–	log10 vapour pressure (mmHg): -3.66
FC(Cl)C(F)Cl (configuration not stated)	46.8	–	–
COc1ccc2c(c1)C(=O)N(CCc1ccc(S(=O)(=O)NC(=O)NC3CCCCC3)cc1)C(=O)C2(C)C	–	181	–
O=[N+]([O-])c1ccc(Oc2ccc(Cl)cc2Cl)cc1	–	70	log10 Koc (L/kg): 4; ready biodegradability: not readily biodegradable
FC(F)(F)C(F)(F)C(F)(F)C(F)(F)C(F)(F)C(F)(F)C(F)(F)C(F)(F)C(F)(F)C(F)(F)I	195	66	–
Clc1cc2ccccc2c(Cl)c1Cl	–	–	log10 Koa: 7.66; log10 vapour pressure (mmHg): -4.7
C[C@]12CCC(=O)C[C@@H]1CC[C@@H]1[C@@H]2CC[C@@]2(C)[C@H]1CC[C@]2(C)O	–	192	–
CCc1ccccn1	149	-63.1	log10 Henry constant (atm·m³/mol): -4.78; log10 vapour pressure (mmHg): 0.689
Cc1cc(N)ccc1Br	240	81	log10 Koc (L/kg): 2.26
NS(=O)(=O)c1ccccc1[N+](=O)[O-]	–	191	–
CCCCCCCCCCCCCCCCCCCc1ccccc1	419	40	–
C=C(C)C1CC=C(C=O)CC1 (configuration not stated)	240	–	–

SMILES	boiling point [°C]	melting point [°C]	further results
NNC(=O)c1ccccc1O	–	148	–
Cc1cc(C)ncn1	159	25	–
CC(C)C(C)C(C)C	114	-109	log10 biodegradation half-life (days): 1.18; log10 vapour pressure (mmHg): 1.43
Cc1ccc(O)c([N+](=O)[O-])c1	–	36.5	log10 Henry constant (atm·m³/mol): -4.83; ready biodegradability: not readily biodegradable; log10 BCF: 0.95
Ic1cccc(-c2ccccc2)c1	–	26.5	–
CCCCCCCCCCCCCCCl	292	4.9	log10 vapour pressure (mmHg): -3.14
Cc1nc(=O)c2ccccc2[nH]1	–	232	–
CCN(CC)c1ccc(Br)cc1	270	38	–
CNC(=O)Oc1cccc2ccccc12	315	145	log10 Koc (L/kg): 2.4; log10 vapour pressure (mmHg): -5.87; ready biodegradability: readily biodegradable; log10 BCF: 0.95; log10 biotransformation half-life (days): -1.18
COP(=S)(OC)Oc1ccc([N+](=O)[O-])cc1Cl	–	52.5	log10 vapour pressure (mmHg): -5.44; log10 BCF: 1.89; log10 biotransformation half-life (days): 0.01
CCCCCc1ccc(O)cc1	250	23	–
Nc1ccc([N+](=O)[O-])cc1[N+](=O)[O-]	334	180	ready biodegradability: not readily biodegradable
CC(=NO)C(C)=NO	–	246	–
CC(=O)c1ccc(Cl)cc1Cl	–	33.5	–
CCCCC[C@@H](O)CC	171	-45	log10 vapour pressure (mmHg): -0.592
O=C(O)c1cc(F)c(F)c(F)c1F	–	86	–
Clc1ccc(-c2ccccc2Cl)c(Cl)c1	–	–	log10 Koc (L/kg): 4.84
ClC1OCCOC1Cl (configuration not stated)	–	30	–
CCCC(C)C(C)=O (configuration not stated)	144	–	–
COc1c2occc2cc2ccc(=O)oc12	–	148	ready biodegradability: not readily biodegradable
S=C(SSC(=S)N1CCCCC1)N1CCCCC1	–	138	–
CCCC(C(N)=O)n1nnc2ccccc21 (configuration not stated)	–	125	–
Clc1ccc2oc3c(Cl)c(Cl)c(Cl)c(Cl)c3c2c1	–	178	log10 vapour pressure (mmHg): -8.44
